Assay results reported in US12568967B2, “Compositions comprising pyridine carboxylate herbicides with synthetic auxin herbicides or auxin transport inhibitors” (priority 2018, dated 2026).
Read-outs that look alike come from different tables or passages of the source.

What was measured:
[1] = system: Brassica napus (winter rape, BRSNW); assay: Greenhouse postemergence trial BRSNW; format: in vivo
[2] = system: Polygonum convolvulus (wild buckwheat, POLCO); assay: Greenhouse postemergence trial POLCO; format: in vivo
[3] = system: Cirsium arvense (Canadian thistle, CIRAR); assay: Greenhouse postemergence trial CIRAR; format: in vivo; conditions: CIRAR
[4] = system: Sinapis arvensis (wild mustard, SINAR); assay: Greenhouse postemergence trial SINAR; format: in vivo; conditions: SINAR
Procedure: (§1) The plants were grown for 7-36 days (d) in a greenhouse with an approximate 14-hour (h) photo-period which was maintained at about 23° C. during the day and 22° C. during the night. Nutrients and water were added on a regular basis and supplemental lighting was provided with overhead metal halide 1000-Watt lamps as necessary. The plants were employed for testing when they reached the second or third true leaf stage.
(§2) The emulsifiable concentrates also included a safener, cloquintocet-mexyl, at 120 grams active ingredient per liter (g ai/L), unless otherwise noted below.
(§3) Control plants were sprayed in the same manner with the solvent blank. All pyridine carboxylate herbicide (component a) application rates are given as “g ae/ha” and all synthetic auxin herbicide or auxin transport inhibitor (component b) application rates are given as “g ai/ha.”
(§4) The treated plants and control plants were placed in a greenhouse as described above and watered by sub-irrigation to prevent wash-off of the test compounds. After 20-22 d, the condition of the test plants as compared with that of the control plants was determined visually and scored on a scale of 0 to 100 percent where 0 corresponds to no injury and 100 corresponds to complete kill.

[5] = system: Salsola kali (Russian thistle, SASKR); assay: Greenhouse postemergence trial SASKR; format: in vivo; conditions: SASKR, alone;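 note: greenhouse plants sprayed at second or third true leaf stage, injury rated by eye after 20-22 d against solvent-blank controls, 0 meaning no injury, 100 complete kill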
[6] = system: Kochia scoparia (kochia, KCHSC); assay: Greenhouse postemergence trial KCHSC; format: in vivo; conditions: KCHSC
[7] = system: Chenopodium album L. (common lambsquarters, CHEAL); assay: Greenhouse postemergence trial CHEAL; format: in vivo; conditions: CHEAL; alone 280 g/ha;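 note: greenhouse plants sprayed at second to third true leaf stage, injury rated by eye after 20-22 d versus solvent-blank sprayed controls, 0 = no injury, 100 = complete kill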
[8] = system: Amaranthus retroflexus (pigweed, AMARE); assay: Greenhouse postemergence trial AMARE; format: in vivo; conditions: AMARE; alone 280 g/ha;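 note: Greenhouse-grown plants sprayed at second to third true leaf stage, injury rated by eye after 20-22 d versus solvent-blank sprayed controls, 0 = no injury, 100 = complete kill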
Procedure: as §1, §2, §3, §4

[9] = system: Matricaria chamomilla (wild chamomile, MATCH); assay: Greenhouse postemergence trial MATCH; format: in vivo; conditions: MATCH;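 note: greenhouse plants sprayed at second to third true leaf stage, injury rated by eye 20-22 d later versus solvent-blank controls on 0–100 scale, 0 no injury, 100 complete kill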
[10] = system: Triticum aestivum (spring wheat, TRZAS); format: in vivo; conditions: TRZAS; for % visual injury Obs: alone
[11] = system: Hordeum vulgare (spring barley, HORVS); format: in vivo; conditions: HORVS; for % visual injury Obs: alone
[12] = system: Cyanus segetum (cornflower, CENCY); assay: Greenhouse postemergence trial CENCY; format: in vivo
Procedure: (§5) Seeds of the desired test plant species were planted in a 90:10% v/v (volume/volume) mixture of PRO-MIX® BX (Premier Tech Horticulture, Quakertown, PA, USA) and PROFILE® GREENS GRADE™ (Profile Products LLC, Buffalo Grove, IL, USA) planting mixture, which typically has a pH of 5.2 to 6.2 and an organic matter content of at least 50 percent, in plastic pots with a surface area of 103.2 square centimeters (cm^2). […] The plants were grown for 7-36 days (d) in a greenhouse with an approximate 14-hour (h) photo-period which was maintained at about 23° C. during the day and 22° C. during the night. Nutrients and water were added on a regular basis and supplemental lighting was provided with overhead metal halide 1000-Watt lamps as necessary. The plants were employed for testing when they reached the second or third true leaf stage.
(§6) Emulsifiable concentrates of each of each pyridine carboxylate herbicide (Compound A or Compound B) were prepared at 100 grams acid equivalent per liter (g ae/L). The emulsifiable concentrates also included a safener, cloquintocet-mexyl, at 120 grams active ingredient per liter (g ai/L), unless otherwise noted below. An aliquot of each emulsifiable concentrate was placed in a 25 mL glass vial and diluted with an aqueous mixture of 1.25% (v/v) ACTIROB® B esterified rapeseed oil (Bayer Crop Science, Research Triangle Park, NC, USA) or MSO® Concentrate with LECI-TECH® methylated soybean oil (Loveland Products, Loveland, CO, USA) to obtain concentrated stock solutions at the highest application rate for each herbicide, based upon a 12 milliliter (mL) application volume at a rate of 187 liters per hectare (L/ha). The concentrated stock solutions were further diluted with an aqueous mixture of 1.25% v/v ACTIROB® B or MSO® Concentrate with LECI-TECH® to obtain stock solutions at reduced application rates for each herbicide. Spray solutions of the herbicide combinations (Compound A or Compound B plus synthetic auxin herbicide or auxin transport inhibitor) were prepared by adding weighed amounts or aliquots of the synthetic auxin herbicide or auxin transport inhibitor to the stock solutions of Compound A or Compound B to form 12-mL spray solutions in two-way combinations.
(§7) The spray solutions were applied to the plant material with an overhead Mandel track sprayer equipped with 8002E nozzles calibrated to deliver 187 L/ha over an application area of 0.503 square meters (m^2) at a spray height of 18 inches (43 centimeters (cm)) above the average plant canopy. Control plants were sprayed in the same manner with the solvent blank. All pyridine carboxylate herbicide (component a) application rates are given as “g ae/ha” and all synthetic auxin herbicide or auxin transport inhibitor (component b) application rates are given as “g ai/ha.”
as §4

[13] = system: Viola arvensis (field violet, VIOAR); assay: Greenhouse postemergence trial VIOAR; format: in vivo
[14] = system: Veronica hederifolia (ivyleaf speedwell, VERHE); assay: Greenhouse postemergence trial VERHE; format: in vivo
[15] = system: Papaver rhoeas (corn poppy, PAPRH); assay: Greenhouse postemergence trial PAPRH; format: in vivo
[16] = system: Veronica persica (bird's-eye speedwell, VERPE); assay: Greenhouse postemergence trial VERPE; format: in vivo
[17] = system: Papaver rhoeas (corn poppy), herbicide-resistant (PAPRH-R); assay: Greenhouse postemergence trial PAPRH-R; format: in vivo
[18] = system: Capsella bursa-pastoris (shepherd's purse, CAPBP); assay: Greenhouse postemergence trial CAPBP; format: in vivo
Procedure: as §5, §6, §7, §4

[19] = system: Stellaria media (chickweed, STEME); assay: Greenhouse postemergence trial STEME; format: in vivo
[20] = system: Anthemis arvensis (field chamomile, ANTAR); assay: Greenhouse postemergence trial ANTAR; format: in vivo
[21] = system: Matricaria discoidea (pineapple weed, MATMT); assay: Greenhouse postemergence trial MATMT; format: in vivo
[22] = system: Matricaria inodora (false chamomile, MATIN); assay: Greenhouse postemergence trial MATIN; format: in vivo
Procedure: as §5, §6, §7, §4

[23] = system: Triticum aestivum (winter wheat, TRZAW); assay: Greenhouse postemergence crop phytotoxicity TRZAW; format: in vivo; conditions: TRZAW, alone
[24] = system: Hordeum vulgare (winter barley, HORVW); assay: Greenhouse postemergence crop phytotoxicity HORVW; format: in vivo; conditions: HORVW, alone
Procedure: as §5, §6, §7, §4

[25] = system: Brassica napus (spring rape, BRSNN); assay: Greenhouse postemergence trial BRSNN; format: in vivo; conditions: BRSNN
Procedure: as §1, §2, §3, §4

[26] = system: Lamium purpureum (purple deadnettle, LAMPU); assay: Greenhouse postemergence trial LAMPU
[27] = system: Viola tricolor (wild pansy, VIOTR); assay: Greenhouse postemergence trial VIOTR;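 note: greenhouse plants sprayed at second to third true leaf stage, injury rated visually after 20-22 d against solvent-blank sprayed controls, 0 meaning no injury and 100 complete kill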
[28] = Papaver rhoeas, post-emergence, read-out: % visual injury Obs

With O=C(O)CCCOc1ccc(Cl)cc1Cl [2,4-DB] the plant injury at 560 g/ha ([1]; Brassica napus, post-emergence, read-out: % visual injury Obs) was 85%, the pest or weed control at 560 g/ha ([2]; Fallopia convolvulus, post-emergence, read-out: % visual injury Obs) was 30% and the “% visual injury (Obs)” value ([2]; POLCO, alone 280 g/ha) was 13%. The “% visual injury (Obs)” value ([3]; alone 280 g/ha) was 15%, the pest or weed control ([3]; Cirsium arvense, post-emergence, alone, read-out: % visual injury Obs) was 30% and the pest or weed control ([4]; Mutarda arvensis, post-emergence, alone, read-out: % visual injury Obs) was 50%. For the same compound, the “% visual injury (Obs)” value ([4]; alone 280 g/ha) was 30%, the pest or weed control ([5]; Salsola kali, post-emergence, read-out: % visual injury Obs) was 50% and the pest or weed control ([6]; Bassia scoparia, post-emergence, alone, read-out: % visual injury Obs) was 30%. The “% visual injury (Obs)” value ([6]; alone 280 g/ha) was 3%, the “% visual injury (Obs)” value [7] was 43% and the “% visual injury (Obs)” value [8] was 60%. For the same compound, the “% visual injury (Obs)” value ([9]; alone 280 g/ha) was 5%, the pest or weed control ([9]; Matricaria chamomilla, post-emergence, alone, read-out: % visual injury Obs) was 10% and the “% visual injury (Obs)” value ([10]; alone 280 g/ha) was 0%. The “% visual injury Obs” value ([10]; 560 g/ha) was 0%, the “% visual injury (Obs)” value ([11]; alone 280 g/ha) was 0% and the “% visual injury Obs” value ([11]; 560 g/ha) was 0%. The pest or weed control at 560 g/ha ([12]; Centaurea cyanus, post-emergence, read-out: % visual injury Obs) was 30%, the pest or weed control at 560 g/ha ([13]; Viola arvensis, post-emergence, read-out: % visual injury Obs) was 30% and the pest or weed control at 560 g/ha ([14]; Veronica hederifolia, post-emergence, read-out: % visual injury Obs) was 60%. It also gave a pest or weed control at 560 g/ha [15, 28] of 100%, a pest or weed control at 560 g/ha ([16]; Veronica persica, post-emergence, read-out: % visual injury Obs) of 60% and a pest or weed control at 560 g/ha [17, 28] of 30%. The pest or weed control at 560 g/ha ([18]; Capsella bursa-pastoris, post-emergence, read-out: % visual injury Obs) was 30%, the pest or weed control at 560 g/ha ([19]; Stellaria media, post-emergence, read-out: % visual injury Obs) was 10% and the pest or weed control at 560 g/ha ([20]; Anthemis arvensis, post-emergence, read-out: % visual injury Obs) was 10%. The pest or weed control at 560 g/ha ([21]; Matricaria discoidea, post-emergence, read-out: % visual injury Obs) was 5%, the pest or weed control at 560 g/ha ([22]; Tripleurospermum inodorum, post-emergence, read-out: % visual injury Obs) was 10% and the “% visual injury Obs” value ([23]; 560 g/ha) was 0%. For the same compound, the “% visual injury Obs” value ([24]; 560 g/ha) was 0%, the “% visual injury (Obs)” value ([25]; alone 280 g/ha) was 70% and the pest or weed control at 560 g/ha ([26]; Lamium purpureum, post-emergence, read-out: % visual injury Obs) was 10%. For the same compound, the pest or weed control at 560 g/ha ([27]; Viola tricolor, post-emergence, read-out: % visual injury Obs) was 60%.

With Nc1nc(C2CC2)nc(C(=O)O)c1Cl [Aminocyclopyrachlor] the “% visual injury Obs” value ([1]; BRSNW, alone, 50 g/ha) was 50%, the “% visual injury Obs” value ([2]; POLCO, alone, 50 g/ha) was 70% and the “% visual injury Obs” value ([3]; alone, 50 g/ha) was 85%. The “% visual injury Obs” value ([4]; alone, 50 g/ha) was 50%, the “% visual injury Obs” value ([5]; 50 g/ha) was 75% and the “% visual injury (Obs)” value ([6]; alone 25 g/ha) was 78%. The “% visual injury Obs” value ([6]; alone, 50 g/ha) was 100%, the “% visual injury Obs” value ([9]; alone, 50 g/ha) was 60% and the “% visual injury (Obs)” value ([10]; alone 25 g/ha) was 43%. The “% visual injury Obs” value ([10]; 50 g/ha) was 0%, the “% visual injury (Obs)” value ([11]; alone 25 g/ha) was 20% and the “% visual injury Obs” value ([11]; 50 g/ha) was 0%. The “% visual injury Obs” value ([12]; CENCY, alone, 50 g/ha) was 100%, the “% visual injury Obs” value ([13]; VIOAR, alone, 50 g/ha) was 25% and the “% visual injury Obs” value ([14]; VERHE, alone, 50 g/ha) was 60%. For the same compound, the “% visual injury Obs” value ([15]; PAPRH, alone, 50 g/ha) was 75%, the “% visual injury Obs” value ([16]; VERPE, alone, 50 g/ha) was 65% and the “% visual injury Obs” value ([17]; PAPRH-R, alone, 50 g/ha) was 60%. For the same compound, the “% visual injury Obs” value ([18]; CAPBP, alone, 50 g/ha) was 70%, the “% visual injury Obs” value ([19]; STEME, alone, 50 g/ha) was 30% and the “% visual injury Obs” value ([20]; ANTAR, alone, 50 g/ha) was 100%. For the same compound, the “% visual injury Obs” value ([21]; MATMT, alone, 50 g/ha) was 50%, the “% visual injury Obs” value ([22]; MATIN, alone, 50 g/ha) was 85% and the “% visual injury Obs” value ([23]; 50 g/ha) was 0%. The “% visual injury Obs” value ([24]; 50 g/ha) was 0%, the “% visual injury (Obs)” value ([25]; alone 25 g/ha) was 30% and the “% visual injury Obs” value ([26]; LAMPU, alone, 50 g/ha) was 65%. For the same compound, the “% visual injury (Obs)” value ([27]; VIOTR, alone 25 g/ha) was 45% and the “% visual injury Obs” value ([27]; VIOTR, alone, 50 g/ha) was 30%.
